The source of these data is patent publication US8222260B2, “Substituted 6-anilinopurine derivatives as inhibitors of cytokinin oxidase/dehydrogenase and preparations containing these derivatives” (Univerzita Palackego V Olomouci, priority 2007, dated 2012).

In general, GI50 refers to the concentration that inhibits growth by half. As usually defined, the IC50 is the point on the concentration scale where inhibition reaches its midpoint. The EC50 is the concentration giving half of the maximal effect. A high value points to weaker potency.

Test [1] has as its system T-lymphoblastic leukemia cell line CEM. Kind of test: Calcein AM cytotoxicity assay. Type of test: cell-based, human. The following applies: Homo sapiens, 72 hours.
Test [2] has as its target T1, recombinant AtCKX2 (Arabidopsis thaliana, UniProt Q9FUJ3).
T1 sequence (Q9FUJ3 23-501): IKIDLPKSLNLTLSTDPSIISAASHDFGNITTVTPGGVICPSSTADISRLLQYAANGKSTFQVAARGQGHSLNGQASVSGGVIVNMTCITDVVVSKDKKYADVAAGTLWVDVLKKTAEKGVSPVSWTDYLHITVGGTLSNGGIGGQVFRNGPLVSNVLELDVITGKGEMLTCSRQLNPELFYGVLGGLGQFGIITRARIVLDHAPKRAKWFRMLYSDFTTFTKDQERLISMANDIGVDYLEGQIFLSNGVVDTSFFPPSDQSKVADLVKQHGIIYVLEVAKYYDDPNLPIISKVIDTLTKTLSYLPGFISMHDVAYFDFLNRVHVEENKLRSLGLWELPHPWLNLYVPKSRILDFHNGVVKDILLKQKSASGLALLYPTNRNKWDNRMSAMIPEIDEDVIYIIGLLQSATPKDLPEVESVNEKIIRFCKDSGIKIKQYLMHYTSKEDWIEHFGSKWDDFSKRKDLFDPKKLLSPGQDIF
The test is described as follows: Inhibition of cytokinin oxidase/dehydrogenase activity (PMS/MTT microtitre plate assay). Type of test: biochemical. Conditions: 30 μM iP as substrate, pH 7.4, 37° C.; means of three replicates; read-out: IC50, inhibition of recombinant AtCKX2. On the procedure: IC50 determinations were done using the assay in microtitre plate. Each well contained 100 μL of PMS/MTT [phenazine methosulfate/3-(4,5-dimethylthiazol-2-yl)-2,5-diphenyltetrazolium bromide] reaction mixture (final concentrations: 0.1 M KH2PO4, pH 7.4, 1 mM MTT, 0.2 mM PMS) containing the tested compound (3×10^−7 M-3×10^−4 M) and 30 μM N^6-isopentenyladenine (iP) as a substrate. 100 μL of cell-free growth medium of S. cerevisiae strain 23344c ura^− harboring the plasmid pYES2-AtCKX2 was directly used as a source of AtCKX2. Plates were incubated in the dark for […] at 37° C. and the enzymatic reaction was stopped by 25 μL of 35% acetic acid. The absorbance at 578 nm was measured using spectrophotometer Tecan. Absorbance of the sample without iP was subtracted.
The IC50 value, the compound concentration that inhibits the enzyme activity to 50%, was calculated from the obtained dose response curves. The values shown in Table 9 are means of three replicates and the entire test was repeated at least twice.
On the technique in general: Tetrazolium assays rely on reduction of a dye to a coloured formazan, in cell work by metabolically active cells.

In test [3] the target is CRE1/AHK4 (Arabidopsis thaliana, UniProt Q9C5U0). Kind of test: Activation of cytokinin receptors (E. coli KMI001 beta-galactosidase reporter). The test is classed as cell-based. Conditions: 17 h incubation; n.a. means no activation. The method, boiled down:
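E. coli KMI001 carrying the receptor plasmid was grown in M9 + 0.1% casamino acids at 25 °C, diluted 1:600 and treated with compound (stock solutions 10^-7–5×10^-5 M). Supernatant β-galactosidase was read by 4-methylumbelliferyl galactoside hydrolysis (1 h, 37 °C, Na2CO3 stop). EC50 came from dose-response curves, triplicate means.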

The test system of test [4] is cytokinin-dependent tobacco callus Nicotiana tabacum L. cv. Wisconsin 38. The test is described as follows: Tobacco callus biotest (plant cell division). Type of test: cell-based. The following applies: at the concentration with highest activity, relative to 10^−5 M kinetin.

Chain of CRE1/AHK4 (Q9C5U0 whole entry): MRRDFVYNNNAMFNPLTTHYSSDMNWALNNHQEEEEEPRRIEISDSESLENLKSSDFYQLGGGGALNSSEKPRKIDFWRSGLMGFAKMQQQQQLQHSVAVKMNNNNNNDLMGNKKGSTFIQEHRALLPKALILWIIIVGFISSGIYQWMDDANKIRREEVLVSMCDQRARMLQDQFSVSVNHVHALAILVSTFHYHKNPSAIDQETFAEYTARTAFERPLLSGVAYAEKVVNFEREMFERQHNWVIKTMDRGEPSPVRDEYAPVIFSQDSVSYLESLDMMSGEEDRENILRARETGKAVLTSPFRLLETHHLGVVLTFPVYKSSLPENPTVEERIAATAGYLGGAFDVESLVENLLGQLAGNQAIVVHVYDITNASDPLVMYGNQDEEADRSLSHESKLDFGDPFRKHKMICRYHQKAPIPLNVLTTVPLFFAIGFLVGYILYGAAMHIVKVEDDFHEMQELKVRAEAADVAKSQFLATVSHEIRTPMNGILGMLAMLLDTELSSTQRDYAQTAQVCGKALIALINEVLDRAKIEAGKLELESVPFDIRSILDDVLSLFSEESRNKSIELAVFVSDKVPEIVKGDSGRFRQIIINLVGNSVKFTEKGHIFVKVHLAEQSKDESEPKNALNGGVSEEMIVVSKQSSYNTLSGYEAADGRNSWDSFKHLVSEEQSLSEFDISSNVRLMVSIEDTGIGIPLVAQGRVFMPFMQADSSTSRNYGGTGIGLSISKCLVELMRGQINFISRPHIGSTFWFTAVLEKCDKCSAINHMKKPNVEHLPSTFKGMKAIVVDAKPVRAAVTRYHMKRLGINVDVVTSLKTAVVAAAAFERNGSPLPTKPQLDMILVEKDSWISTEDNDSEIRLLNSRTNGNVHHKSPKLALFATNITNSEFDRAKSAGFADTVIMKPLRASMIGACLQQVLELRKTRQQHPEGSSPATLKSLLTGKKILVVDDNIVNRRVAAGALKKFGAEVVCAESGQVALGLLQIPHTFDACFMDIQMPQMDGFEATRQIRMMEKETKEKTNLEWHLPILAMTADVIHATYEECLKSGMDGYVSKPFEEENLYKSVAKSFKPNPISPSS

For the molecule `Clc1nc(Nc2ccccc2)c2[nH]cnc2n1` [Compound 1, 2-Chloro-6-anilinopurine], in test [1], the GI50 is more than 167 µM. Moreover, in test [2], the IC50 was found to be 22.6 µM.
Turning to `Clc1cccc(Nc2nc(Cl)nc3nc[nH]c23)c1` [Compound 3, 2-Chloro-6-(3-chloroanilino)purine], the GI50 in test [1] is more than 167 µM. For the same molecule, in test [3], the half-maximal effective concentration (EC50) is 7.5 µM. Moreover, the “Activity (%) [10^−5 mol · l^−1 K = 100%]” value in test [4] is 110%. Also, the half-maximal inhibitory concentration (IC50) in test [2] came out at 6.3 µM.
In the case of `Clc1ccc(Nc2nc(Cl)nc3[nH]cnc23)cc1` [Compound 4], the GI50 in test [1] was more than 167 µM. Moreover, in test [4], the “Activity (%) [10^−5 mol · l^−1 K = 100%]” value stood at 102%. Also, the IC50 in test [2] is 24.1 µM.
In the case of `Fc1cccc(Nc2nc(Cl)nc3nc[nH]c23)c1` [Compound 6, 2-Chloro-6-(3-fluoroanilino)purine], in test [4], the “Activity (%) [10^−5 mol · l^−1 K = 100%]” value worked out at 119.7%. Besides, the 50% inhibitory concentration (IC50) in test [2] amounted to 12.2 µM.
As to `Oc1cccc(Nc2nc(Cl)nc3nc[nH]c23)c1` [Compound 9, 2-Chloro-6-(3-hydroxyanilino)purine], in test [3], the midpoint of the response, the EC50, lay at 37.1 µM. Besides, in test [4], the “Activity (%) [10^−5 mol · l^−1 K = 100%]” value worked out at 116.2%. Besides, the IC50 in test [2] was determined as 3.5 µM.
For `COc1cccc(Nc2nc(Cl)nc3nc[nH]c23)c1` [Compound 12, 2-Chloro-6-(3-methoxyanilino)purine], in that order: 31.3 µM, 122% and 0.8 µM.
On to `Fc1nc(Nc2ccccc2)c2nc[nH]c2n1` [Compound 40], for which the GI50 in test [1] is more than 167 µM. Also, in test [3], the EC50 came out at 46.2 µM. The “Activity (%) [10^−5 mol · l^−1 K = 100%]” value in test [4] was 108.1%.
Regarding `Fc1nc(Nc2cccc(Cl)c2)c2nc[nH]c2n1` [Compound 42], the GI50 in test [1] is more than 167 µM. The molecule further yielded an EC50 in test [3] of 21 µM. For the same molecule, the “Activity (%) [10^−5 mol · l^−1 K = 100%]” value in test [4] is 121%. The IC50 in test [2] is 15.3 µM.
Take `Oc1cccc(Nc2nc(F)nc3[nH]cnc23)c1` [Compound 48]: a half-maximal response in test [3] (EC50) required 49.6 µM. Also, the “Activity (%) [10^−5 mol · l^−1 K = 100%]” value in test [4] was 104.2%. The IC50 in test [2] is 11.8 µM.
For `COc1cccc(Nc2nc(F)nc3nc[nH]c23)c1` [Compound 51, 2-Fluoro-6-(3-methoxyanilino)purine], in that order: 43 µM, 120.5% and 0.4 µM.
Consider `Nc1nc(Nc2cccc(Cl)c2)c2nc[nH]c2n1` [Compound 66], for which, in test [2], the IC50 worked out at 25.6 µM.
On to `Nc1nc(Nc2cccc(O)c2)c2nc[nH]c2n1` [Compound 72], for which, in test [3], the half-maximal effective concentration (EC50) is more than 50 µM.
For the molecule `Fc1cccc(Nc2nc(S)nc3[nH]cnc23)c1` [Compound 83], in test [4], the “Activity (%) [10^−5 mol · l^−1 K = 100%]” value is reported as 102.5%. Moreover, the IC50 in test [2] was 22.6 µM.
On to `c1coc(CNc2ncnc3nc[nH]c23)c1` [Kinetin, 6-furfurylaminopurine, reference compound], for which, in test [1], the GI50 was 155 µM. For the same molecule, in test [4], the “Activity (%) [10^−5 mol · l^−1 K = 100%]” value is on record as 100%.
